According to patent publication US20120065267A1, “COMPOSITIONS INCLUDING 3,5-L-T2 AND METHODS OF USE THEREOF” (priority 2010, published 2012):
Where “and” joins values, the source holds several entries; their conditions need not be identical. Equal values may be shown once.

Experiments:
[1] = Body weight of mice on Western Diet given low or high dose T2; format: in vivo; settings: for Body weight (Ave) / Body weight: LDLr+/− mice
Method: (§1) This corresponds to a dosage for an 80 kg human of about 20-200 mg/day, or a low dose of about 0.2-0.3 mg/kg of body weight to a high dose of about 2-3 mg/kg of body weight. One will appreciate, however, that some subjects (e.g., subjects having very low LDL receptor function) may receive higher doses, depending on need. likewise, some subjects may receive lower doses, which again depends on need. Mice in the study were fed a standard lab chow referred to as the “Western Diet.” The overall level of fat and the saturated nature of the fat are representative diets typical in the industrialized west that are linked to risk of cardiovascular disease in humans. The formula is used primarily with genetically manipulated rodent models that are susceptible to high cholesterol and cardiovascular disease. The diet may also be useful in diet-induced obesity, diabetes, and metabolic syndrome models. High cholesterol, obesity, and diabetes are each associated increased risk for cardiovascular disease. The composition of the Western Diet is shown below. C57 is a wild-type strain, LDLr+/− are a strain carrying one functional copy of the LDLr gene, and the LDLr0 animals are total LDLr knockouts. The LDLr gene encodes for the LDL receptor protein, which is responsible for scavenging LDL with bound cholesterol from the blood and transporting it into cells. Both heterozygous and homozygous LDLr knockout animals develop very high serum cholesterol levels and are considered to be a good model for heterozygous and homozygous familial hypercholesterolemia in humans. […] LDLr knockout animals have zero LDL receptor function.

[2] = test system: C57, LDLr+/− and LDLr0 mice; assay: Blood sugar (serum glucose) in mice on Western Diet given daily oral T2; format: in vivo; design: Blood Sugar / Blood Sugar Ave: unit not given here; settings: for Blood Sugar Ave / Blood Sugar: Western Diet
Method: as §1

rats = settings: 250 mcg/kg p.o. q.d. for 30 days, cited from earlier work
TR β gene expression = settings: relative to T3; cited from earlier work
[3] = test system: growth hormone gene expression; settings: cited from earlier work
[4] = test system: C57, LDLr+/− and LDLr0 mice; assay: Serum triglycerides in mice on Western Diet given daily oral T2; format: in vivo; design: Triglycerides / Triglycerides (Ave): unit not given here
Method: as §1

[5] = test system: thyroid receptor homodimer; settings: in contrast to T3; cited from earlier work
[6] = low and high dose T2, all genotypes

N[C@@H](Cc1cc(I)c(Oc2ccc(O)cc2)c(I)c1)C(=O)O [T2, (2S)-2-amino-3-[4-(4-hydroxyphenoxy)-3,5-diiodophenyl]propanoic acid]
Body weight (Ave) ([1]; High Dose T2 2.5 mg/kg daily oral, Day 5, group average): 29.7 g | Body weight ([1]; High Dose T2 2.5 mg/kg daily oral, Day 5, individual animal, 2.5 mg/kg, in g (unit assumed)): 32.3 and 32.9 and 28.9 and 30.4 and 27.6 and 26.3 | Body weight (Ave) ([1]; Low Dose T2 0.25 mg/kg daily oral, Day 1, group average): 26.7 g | Body weight ([1]; Low Dose T2 0.25 mg/kg daily oral, Day 1, individual animal, 0.25 mg/kg, in g (unit assumed)): 28.2 and 29.0 and 24.7 and 26.4 and 25.0 and 26.6 | Body weight (Ave) ([1]; Low Dose T2 0.25 mg/kg daily oral, Day 2, group average): 28.1 g | Body weight ([1]; Low Dose T2 0.25 mg/kg daily oral, Day 2, individual animal, 0.25 mg/kg, in g (unit assumed)): 29.4 and 30.6 and 26.6 and 27.8 and 26.1 and 28.2 | Body weight (Ave) ([1]; Low Dose T2 0.25 mg/kg daily oral, Day 3, group average): 28.6 g | Body weight ([1]; Low Dose T2 0.25 mg/kg daily oral, Day 3, individual animal, 0.25 mg/kg, in g (unit assumed)): 29.7 and 31.4 and 27.2 and 28.1 and 26.3 and 28.8 | Body weight (Ave) ([1]; Low Dose T2 0.25 mg/kg daily oral, Day 4, group average): 27.6 g | Body weight ([1]; Low Dose T2 0.25 mg/kg daily oral, Day 4, individual animal, 0.25 mg/kg, in g (unit assumed)): 28.8 and 30.3 and 26.2 and 27.4 and 25.8 and 27.3 | Body weight (Ave) ([1]; Low Dose T2 0.25 mg/kg daily oral, Day 5, group average): 28.5 g | Body weight ([1]; Low Dose T2 0.25 mg/kg daily oral, Day 5, individual animal, 0.25 mg/kg, in g (unit assumed)): 29.5 and 31.3 and 27.3 and 28.4 and 26.6 and 27.9 | Body weight (Ave) ([1]; Low Dose T2 0.25 mg/kg daily oral, Day 6, group average): 29.2 g | Body weight ([1]; Low Dose T2 0.25 mg/kg daily oral, Day 6, individual animal, 0.25 mg/kg, in g (unit assumed)): 30.7 and 32.4 and 28.5 and 29.1 and 26.7 and 27.9 | Body weight (Ave) ([1]; Low Dose T2 0.25 mg/kg daily oral, Day 7, group average): 30 g | Body weight ([1]; Low Dose T2 0.25 mg/kg daily oral, Day 7, individual animal, 0.25 mg/kg): 31.0 and 32.7 and 29.6 (2×) and 28.2 and 29.0 | effect on weight gain [1, 6]: did not affect | Blood Sugar Ave ([2]; C57 mice, 1 Week High Dose T2, group average): 110.0 | Blood Sugar ([2]; C57 mice, 1 Week High Dose T2, individual animals): 74 and 158 and 106 and 120 and 92 | Blood Sugar Ave ([2]; C57 mice, 1 Week Low Dose T2, group average): 170.0 | Blood Sugar ([2]; C57 mice, 1 Week Low Dose T2, individual animals): 151 and 203 and 186 and 190 and 120 | Blood Sugar Ave ([2]; LDLr0 mice, 1 Week High Dose T2, group average): 94.0 | Blood Sugar ([2]; LDLr0 mice, 1 Week High Dose T2, individual animals): 87 and 101 | Blood Sugar Ave ([2]; LDLr0 mice, 1 Week Low Dose T2, group average): 92.0 | Blood Sugar ([2]; LDLr0 mice, 1 Week Low Dose T2, individual animals): 143 and 54 and 79 | Blood Sugar Ave ([2]; LDLr+/− mice, 1 Week High Dose T2, group average): 101.0 | Blood Sugar ([2]; LDLr+/− mice, 1 Week High Dose T2, individual animals): 108 and 99 and 112 and 94 and 113 and 80 | Blood Sugar Ave ([2]; LDLr+/− mice, 1 Week Low Dose T2, group average): 201.0 | Blood Sugar ([2]; LDLr+/− mice, 1 Week Low Dose T2, individual animals): 202 and 146 and 235 and 171 and 242 and 210 | lowered blood sugar levels, average ([2]; all genetic groups (C57, LDLr+/−, LDLr0), high dose T2 2.5 mg/kg daily oral, vs controls): 45-50% | decrease in body weight (rats; compared to controls): 13% | decrease in hepatic fat mass (rats; compared to controls): 50% | increase in hepatic fat oxidation (rats; compared to controls): 42% | lowering of cholesterol (rats; compared to controls): 18% | lowering of serum triglycerides (rats; compared to controls): 52% | heart rate, thyroid gland or heart weight, TSH, free T3, free T4, TSH response to TRH (rats): not accompanied by an increase in heart rate | less potent than T3 in decreasing TR β gene expression (TR β gene expression): 50% | potency relative to T3 in increasing growth hormone gene expression [3]: 1/100 | Triglycerides (Ave) ([4]; C57 mice, 1 Week High Dose, T2 2.5 mg/kg daily oral, group average): 55.8 | Triglycerides ([4]; C57 mice, 1 Week High Dose, T2 2.5 mg/kg daily oral, individual animal, 2.5 mg/kg): 42.161 and 68.02 and 45.486 and 50.657 and 72.822 | Triglycerides (Ave) ([4]; C57 mice, 1 Week Low Dose, T2 0.25 mg/kg daily oral, group average): 29.5 | Triglycerides ([4]; C57 mice, 1 Week Low Dose, T2 0.25 mg/kg daily oral, individual animal, 0.25 mg/kg): 24.835 and 29.673 and 13.299 and 36.371 and 43.441 | Triglycerides (Ave) ([4]; LDLr0 mice (first group), 1 Week High Dose, T2 2.5 mg/kg daily oral, group average): 192.1 | Triglycerides ([4]; LDLr0 mice (first group), 1 Week High Dose, T2 2.5 mg/kg daily oral, individual animal, 2.5 mg/kg): 173.672 and 210.614 | Triglycerides (Ave) ([4]; LDLr0 mice (first group), 1 Week Low Dose, T2 0.25 mg/kg daily oral, group average): 183.0 | Triglycerides ([4]; LDLr0 mice (first group), 1 Week Low Dose, T2 0.25 mg/kg daily oral, individual animal, 0.25 mg/kg): 230.244 and 106.329 and 212.382 | Triglycerides (Ave) ([4]; LDLr0 mice (second group), 1 Week Low Dose, T2 0.25 mg/kg daily oral, group average): 236.2 | Triglycerides ([4]; LDLr0 mice (second group), 1 Week Low Dose, T2 0.25 mg/kg daily oral, individual animal, 0.25 mg/kg): 183.413 and 260.001 and 239.273 and 268.082 and 244.895 and 177.441 and 263.163 and 252.975 | Triglycerides (Ave) ([4]; LDLr0 mice (second group), 2 Week High Dose (as headed), daily oral T2, group average): 356.5 | Triglycerides ([4]; LDLr0 mice (second group), 2 Week High Dose (as headed), daily oral T2, individual animal): 225.895 and 274.993 and 402.246 and 281.673 and 462.031 and 223.557 and 485.745 and 496.099 | Triglycerides (Ave) ([4]; LDLr+/− mice, 1 Week High Dose, T2 2.5 mg/kg daily oral, group average): 52.1 | Triglycerides ([4]; LDLr+/− mice, 1 Week High Dose, T2 2.5 mg/kg daily oral, individual animal, 2.5 mg/kg): 40.683 and 35.511 and 62.848 and 68.389 and 37.359 and 68.02 | Triglycerides (Ave) ([4]; LDLr+/− mice, 1 Week Low Dose, T2 0.25 mg/kg daily oral, group average): 31.4 | Triglycerides ([4]; LDLr+/− mice, 1 Week Low Dose, T2 0.25 mg/kg daily oral, individual animal, 0.25 mg/kg): 12.927 and 34.138 and 40.464 and 29.673 and 31.161 and 40.092 | effect on serum triglyceride levels [4, 6]: did not affect | effect on thyroid receptor homodimer formation [5]: no effect
